Earlier results as cited in patent US8889663B2, “Formulation for oral transmucosal administration of lipid-lowering drugs” (priority 2008, dated 2014).

Experiments:
[1] = in vivo
[2] = oral, 20 mg or 40 mg dose

SMILES	volume of organ and tissue space in which the active principle is distributed [1]	average known residual bioavailability [2]
CC(C)c1c(C(=O)Nc2ccccc2)c(-c2ccccc2)c(-c2ccc(F)cc2)n1CC[C@@H](O)C[C@@H](O)CC(=O)O [atorvastatin]	exceeding 600 L	
CC[C@H](C)C(=O)O[C@H]1C[C@H](O)C=C2C=C[C@H](C)[C@H](CC[C@@H](O)C[C@@H](O)CC(=O)O)[C@H]21 [provastatin]		around 17 % of the administered dose
